Data from US20250123282A1, “METHODS FOR EVALUATION AND TREATMENT OF TYROSINE KINASE INHIBITOR (TKI)-RESISTANT ACUTE MYELOID LEUKEMIA” (LOMA LINDA UNIVERSITY, priority 2021, published 2025).

Experiments:
[1] = system: MOLM-14 cells; assay: FACS of TKI-treated MOLM-14 cells in vitro (viable blasts, pBAD); assay type: cell-based, human; conditions: 3 days after one dose of 80 nM TKI; vs non-treatment controls
Experimental: The AML cells were analyzed at different time points after exposure to TKI (3 days, 10 days, 20 days, and 28 days). […] After 3 days, FACS of the surface markers and intracellular proteins, including CD14, CD33, CD44, and Ki67, were performed. FIGS. 1A-1E depicts therapeutic effect of different TKIs on MV4-11 and MOLM-14 cells in vitro (N=6). […] The circles indicate the group of viable blasts located in a FACS plot and green arrows indicate the dying tendency of blasts which will become positive for viability dye during the next few days. FIGS. 1C and 1D are graphical representations of the cumulative FACS percentage data of viable MV4-11 and MOLM-14 cells. *P<0.05. […]
Flow Cytometry (FACS). […] About 1×10^4˜10^6 cells in 100 μl FACS buffer (PBS containing 1% FBS and 0.05% sodium azide) were stained with various fluorescence-conjugated antibodies specific for the desired cell surface proteins at 4° C. for 30 min. The surface-stained cells were then fixed and permeabilized using the appropriate reagents (e.g. the BD Pharmingen Cytofix/Cytoperm buffer) and stained with different fluorescence-conjugated antibodies specific for the desired intracellular proteins at 4° C. for 2 hours in the permeabilizing buffer (e.g. the BD Perm/Wash buffer). […] Finally, the cells were washed twice in the permeabilizing buffer and twice in the FACS buffer before being analyzed on the BD FACSAria II. […]

[2] = system: MOLM-14 cells; assay: Phase-bright imaging of re-growth of TKI-treated MOLM-14; assay type: cell-based, human; conditions: 10 days after TKI treatment
From the text: To follow the cell fate of TKI-treated MV4-11 and MOLM-14, culturing of blasts were continued by performing medium change every 2-3 days. […] The BAD protein is a pro-apoptotic member of the BCL-2 gene family, which is involved in initiating apoptosis. Dephosphorylated BAD is pro-apoptotic by binding BCL-2 and inactivating BCL-2, while phosphorylated BAD (pBAD) is anti-apoptotic by leaving BCL-2 free to inhibit BAX-triggered apoptosis.
Small Molecular Inhibitors and in vitro & ex vivo Treatment. […] The dose of 80 nM for the four TKIs was selected based on their dose-dependent cytotoxicity in previous reports. […] Both GILT and QUIZ were reported to start to suppress the tumorigenic clustering and c-Kit at the dose of 80 nM. […] The combination of 5 μM 5-Azacitidine (AZA) and 80 nM 1α,25-Dihydroxyvitamin D3 (VD3) was added to the experimental group similar to the previous report. As combination agents to treat blasts in vitro, one dose of 80 nM GILT with one dose of either 100 nM Venetoclax (BCL2 inhibitor), 10 μM (R)-Lisofylline (STAT4 inhibitor), 100 nM AZD1208 (PIM inhibitor), 500 nM PF-06826647 (TYK2 inhibitor), or 500 nM AT9283 (JAK2/3 inhibitor) were added to 1 ml of 1×10^6 cells for each experimental group in 24 well plates. Three days after the one dose treatment, cells were then collected for either analyses by FACS and qPCR, or re-plated into 24 well plates for continued culture. […]

## CC(C)(C)c1cc(NC(=O)Nc2ccc(-c3cn4c(n3)sc3cc(OCCN5CCOCC5)ccc34)cc2)no1 [QUIZ, Quizartinib]
[1]
  viable MOLM-14 blasts (FACS): more effective
[2]
  re-growth / tumorigenic clusters of MOLM-14: few newly formed tumorigenic clusters
